Test results from the NIST ThermoML archive (doi:10.1021/je060271a).

Conditions: 323.15 K, Liquid, Vibrating tube method

CCCCCCC(=O)OCC(COC(=O)CCCCCC)(COC(=O)CCCCCC)COC(=O)CCCCCC [pentaerythritol tetraheptanoate]
Conditions	mass density [kg/m3]
21056 kPa	969.3
21077 kPa	969.3
21094 kPa	969.4
21132 kPa	969.3
21278 kPa	969.4
21299 kPa	969.5
21316 kPa	969.5
21334 kPa	969.5
21352 kPa	969.4
21372 kPa	969.6
21390 kPa	969.6
21408 kPa	969.8
21430 kPa	969.6
21448 kPa	969.6
21466 kPa	969.5
21483 kPa	969.6
21504 kPa	969.5
21522 kPa	969.6
21540 kPa	969.7
21562 kPa	969.6
21580 kPa	969.6
21601 kPa	969.7
21619 kPa	969.8
21637 kPa	969.7
21659 kPa	969.7
21677 kPa	969.8
21695 kPa	969.8
21716 kPa	969.7
21734 kPa	969.8
21753 kPa	969.7
21775 kPa	969.9
21793 kPa	969.8
21830 kPa	969.9
21852 kPa	969.8
21871 kPa	969.8
21930 kPa	970
21950 kPa	969.9
21968 kPa	969.8
21990 kPa	969.9
22070 kPa	970
22089 kPa	969.9
22112 kPa	969.9
22131 kPa	970
22150 kPa	969.9
22173 kPa	970
22193 kPa	970
22213 kPa	970
22232 kPa	970
22275 kPa	970.2
22313 kPa	970.1
22336 kPa	970.1
22356 kPa	970.1
22380 kPa	970.1
22399 kPa	970.2
22419 kPa	970.2
22442 kPa	970.1
22463 kPa	970.2
22483 kPa	970.2
22502 kPa	970.2
22522 kPa	970.2
22546 kPa	970.1
22566 kPa	970.2
22585 kPa	970.4
22609 kPa	970.3
22629 kPa	970.3
22653 kPa	970.3
22717 kPa	970.3
22758 kPa	970.4
22779 kPa	970.4
22804 kPa	970.4
22824 kPa	970.4
22848 kPa	970.5
22869 kPa	970.4
22889 kPa	970.4
22913 kPa	970.4
23043 kPa	970.5
23090 kPa	970.5
23337 kPa	970.7
23406 kPa	970.7
23640 kPa	970.9
23662 kPa	970.8
23684 kPa	970.9
23706 kPa	970.9
23734 kPa	970.9
23970 kPa	971.1
23993 kPa	971.2
24020 kPa	971.1
24043 kPa	971
24070 kPa	971.1
24093 kPa	971.2
24116 kPa	971.2
24143 kPa	971.2
24166 kPa	971.1
24190 kPa	971.2
24215 kPa	971.1
24242 kPa	971.3
24265 kPa	971.3
24289 kPa	971.3
24317 kPa	971.3
24340 kPa	971.4
24364 kPa	971.3
24387 kPa	971.3
24415 kPa	971.3
24466 kPa	971.4
24515 kPa	971.5
24540 kPa	971.4
24564 kPa	971.4
24616 kPa	971.5
24669 kPa	971.6
24770 kPa	971.5
25086 kPa	971.7
25112 kPa	971.8
